Results on three compounds are retold here after patent US20240392383A1, “Cancer biomarkers for susceptibility to treatment by almitrine” (priority 2021, published 2024).

Structures are written as SMILES. Read-outs that look alike come from different tables or passages of the source.

For series [1] the following is noted: intravenous 459±155 mg almitrine dimesylate infused within 24 hours [16], cited from earlier work.
The conditions of series [2]: cited from earlier work.
The subject of the next series is NCI-60 cancer cell lines. Briefly: CellMiner gene expression correlated with growth inhibition (%) at 10 μM (mean of NCI 1-dose and 5-dose protocols). The format is cell-based, human. From the text:
Correlations first found using NCI COMPARE, with the aforementioned method, were then further corroborated using cancer gene expression data sourced from the CellMiner database. Indeed, the following NCI 1-dose and 5-dose anti-cancer data for almitrine dimesylate, with serial codes given that will be used to refer to each hereafter, was compared with cancer gene expression data sourced from CellMiner:
The CellMiner database includes five independent Human Genome gene expression data sets {accession numbers: GSE5949, GSE5720, GSE32474, GSE29682, GSE29288}, each of which can have multiple different transcript sequence probes for a single gene, wherein the mean expression for each gene was taken: within and across the different databases, which is distinct from NCI COMPARE where all expressions of different sequence transcripts for a gene were kept distinct without any averaging, and where there was no averaging across gene expression data sets, each was kept distinct. Although actually only four of these gene expression data sets in CellMiner were used to generate the mean for each gene expression: the single gene expression data set that used an Agilent instead of an Affymetrix microarray chip (GSE29288) was excluded from the mean because, to quote the CellMiner documentation: “Agilent probe(s) values are removed from cell line average intensity calculation due to normalization inconsistency with Affymetrix probesets”. […] So, the data set sourced from an Agilent microarray chip was not incorporated in the mean, but was instead used by itself separately for an independent verification. With much less data, the Agilent set is much less reliable than the mean of the 4 Affymetrix microarray data sets, but it is a nice independent adjudicator. This Agilent data set is not one of the six gene expression data sets at NCI COMPARE. By contrast, there is some overlap in the 4 CellMiner gene expression databases that were used for the mean and the 6 that were used with NCI COMPARE (some might be the same). […] Also, distinctly with the 4 Affymetrix microarray data sets in CellMiner, the mean expression for each gene was taken: averaging the expression of all the different sequence transcripts, across all the 4 used Affymetrix microarray data sets, for each gene. Moreover, this mean is very heavily weighted to a database that CellMiner has, and NCI COMPARE definitely doesn't, Accession number: GSE29682, because it tends to have many more probes for each gene than any other data set, indeed often more than all the others combined, each of which is an additional data point in the mean for each gene. […]

In the next series the test system is NCI-60. The following applies: NCI-60 testing; comparators e.g. carboplatin; reported in previous applications WO2019/012149A1; cited from earlier work.
Series [3] has as its system CML. Briefly: Anti-CML activity. The following applies: almitrine (or salt, solvate, hydrate, prodrug) and imatinib/dasatinib/nilotinib/radotinib/bosutinib/ponatinib; anticipated by the teaching of this disclosure. The format is cell-based.
The next series has as its system AML cells. The following applies: cited from earlier work.
A further series has as its target MYC/Max (Homo sapiens, UniProt P01106). The following applies: cited from earlier work.
For series [4] the following is noted: reason for not being suitable for in vivo use [18]; cited from earlier work.
In series [5] the test system is CML. The following applies: cited from earlier work.

Chain of MYC/Max (P01106 whole entry): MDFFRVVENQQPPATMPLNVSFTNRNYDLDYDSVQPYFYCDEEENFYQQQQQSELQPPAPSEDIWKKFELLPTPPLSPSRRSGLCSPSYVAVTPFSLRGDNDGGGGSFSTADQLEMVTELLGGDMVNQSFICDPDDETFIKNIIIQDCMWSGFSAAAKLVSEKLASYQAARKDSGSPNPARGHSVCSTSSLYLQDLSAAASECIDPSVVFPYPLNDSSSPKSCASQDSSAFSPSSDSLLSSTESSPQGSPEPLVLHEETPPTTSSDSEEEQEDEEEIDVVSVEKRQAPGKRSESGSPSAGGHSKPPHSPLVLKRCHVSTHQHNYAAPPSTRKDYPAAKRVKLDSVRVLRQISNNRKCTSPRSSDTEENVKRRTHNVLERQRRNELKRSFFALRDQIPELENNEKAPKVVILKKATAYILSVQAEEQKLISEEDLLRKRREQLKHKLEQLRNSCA

With `C=CCNc1nc(NCC=C)nc(N2CCN(C(c3ccc(F)cc3)c3ccc(F)cc3)CC2)n1` [almitrine dimesylate], in series [1] (subjects with normal liver function), the Adverse effect entry is on record as “without any adverse effect”. In addition, the “Blood [lactate]” value in series [1] (subjects with poor/impaired liver function) was “can potentially increase blood [lactate]”. Also, in [2] (humans), the “Side-effects in humans compared with present cancer drugs” value is on record as “less, close to no, side-effects”. Also, the Reversibility of side-effects entry in [2] (if side-effects occur [2]) is recorded as “reversible upon stopping the course in nearly all cases”. Besides, the results for the Side-effects result in series [2] (patients taking it daily for <11 months) and in [2] (patients taking it daily for >11 months to years [2]) were “no side-effects in nearly every patient” and “side-effects in a very small minority of the many patients”, respectively. For the same compound, the “Anti-cancer activity vs SCAF11 minus RAPH1 gene expression (FIG. 1A bottom panel)” value with NCI-60 cancer cell lines (SCAF11 gene expression minus RAPH1 gene expression, CellMiner data) was “greater against cancers with greater value of SCAF11 gene expression minus RAPH1 gene expression”. The “Susceptibility to anti-cancer activity vs MYC oncogene expression (FIG. 1C)” value with NCI-60 cancer cell lines (gene MYC, CellMiner data) is “the more likely it is susceptible”. Also, the “Anti-cancer activity vs RAPH1 gene expression (FIG. 1A middle panel)” value with NCI-60 cancer cell lines (gene RAPH1, CellMiner Affymetrix, Agilent and RNA-seq data) is given as “less against cancers with greater gene expression of RAPH1”. Further, in the series with NCI-60 cancer cell lines (gene SCAF11, CellMiner Affymetrix, Agilent and RNA-seq data), the “Anti-cancer activity vs SCAF11 gene expression (FIG. 1A upper panel)” value is “greater against cancers with greater gene expression of SCAF11”. In addition, in the series on NCI-60, the “Anti-cancer activity compared with present cancer drugs” value is “greater anti-cancer activity than many present cancer drugs”.
For `C=CCNc1nc(NCC=C)nc(N2CCN(C(c3ccc(F)cc3)c3ccc(F)cc3)CC2)n1` [almitrine], in the series on CML [3], the “Anti-CML activity in combination” value is recorded as “synergistic anti-CML activity”.
As for `CCc1ccc(/C=C2/SC(=S)NC2=O)cc1` [10058-F4], in the series on AML cells (AML, Myc inhibition [39]), the “Drug resistance of leukemic cells” value is reported as “can overcome drug resistance”. The “Differentiation of AML cells” value with AML cells ([42]) is “causes AML cells to differentiate”. In addition, the “Apoptosis of AML cells” value with AML cells (at higher concentrations [42]) is “induces their apoptosis”. Besides, on MYC/Max ([18]), the MYC/Max heterodimerization entry is on record as “does disrupt MYC/Max heterodimerization”. The Affinity for target result at MYC/Max (target MYC [18]) was “low affinity for target”. The Degradation result in series [4] is recorded as “fast degradation”. The “Anti-cancer activity in combination” value with CML [5] (10058-F4 and imatinib [26]) was “synergistic anti-cancer activity”. Moreover, the Anti-CML activity entry with CML [5] ([26]) is on record as “exerts anti-CML activity”.
